For orientation: AC50 means the concentration at which the activity in the assay is half-maximal. A word on the IC50: it is the concentration that gives 50% inhibition.

Molecules are shown by their SMILES. The source made the active and inactive calls. Some results are limits rather than exact numbers.

EC50, AC50 and IC50 data for 43 compounds are collected here from ChEMBL document CHEMBL1201862, “PubChem BioAssay data set” (2004).

Data set [1] is described as follows: cytotoxicity toward NIH3T3 fibroblasts, dose response, counter-screen, cell-based, ATP luminescence, mouse fibroblasts (AID 2010).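 Further: cells exposed to compound for about 90 hours before reading.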 The format is functional. A general note: Counterscreens check selectivity or assay interference.
Data set [2] in a line: inhibitors of intracellular T. cruzi replication, confirmation, NIH3T3 host cells, beta-gal luminescence (AID 2044).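 Further: intracellular parasites grown in NIH/3T3 mouse fibroblasts as host cells; luminescent beta-galactosidase reporter signal from transgenic T. cruzi replicating inside host cells; inhibitors lower the luminescence signal.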 The format is functional, cell-based.
In another data set the target is T1, Cytochrome P450 1A2 (Homo sapiens, UniProt P05177).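 Further: PubChem cytochrome P450 panel assay, CYP1A2 panel member.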
T1 sequence (P05177 whole entry): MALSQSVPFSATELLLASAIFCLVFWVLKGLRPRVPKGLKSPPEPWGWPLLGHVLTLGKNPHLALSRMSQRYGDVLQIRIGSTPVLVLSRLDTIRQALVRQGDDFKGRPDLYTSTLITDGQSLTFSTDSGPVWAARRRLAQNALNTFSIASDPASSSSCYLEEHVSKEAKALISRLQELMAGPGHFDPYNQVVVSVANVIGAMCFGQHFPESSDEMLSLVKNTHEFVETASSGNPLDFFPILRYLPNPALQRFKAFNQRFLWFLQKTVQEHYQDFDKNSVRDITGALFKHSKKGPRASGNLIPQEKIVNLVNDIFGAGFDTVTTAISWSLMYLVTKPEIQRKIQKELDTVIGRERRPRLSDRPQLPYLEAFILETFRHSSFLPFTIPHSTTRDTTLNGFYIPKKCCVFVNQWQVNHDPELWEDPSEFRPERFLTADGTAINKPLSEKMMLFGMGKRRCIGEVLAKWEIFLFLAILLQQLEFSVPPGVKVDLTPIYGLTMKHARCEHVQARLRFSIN

The next data set has as its target Cytochrome P450 2C19 (Homo sapiens, UniProt P33261). The data set is described as follows: Cytochrome panel assay with activity outcomes. Panel member name: p450-cyp2c19 Compounds with AC50 equal or less than 10 uM are considered active. Type of data set: functional.
Data set [3] addresses T2, Corticotropin-releasing factor receptor 2/Corticotropin-releasing factor-binding protein (Homo sapiens, UniProt P24387+Q13324).
T2 sequence (Q13324 whole entry): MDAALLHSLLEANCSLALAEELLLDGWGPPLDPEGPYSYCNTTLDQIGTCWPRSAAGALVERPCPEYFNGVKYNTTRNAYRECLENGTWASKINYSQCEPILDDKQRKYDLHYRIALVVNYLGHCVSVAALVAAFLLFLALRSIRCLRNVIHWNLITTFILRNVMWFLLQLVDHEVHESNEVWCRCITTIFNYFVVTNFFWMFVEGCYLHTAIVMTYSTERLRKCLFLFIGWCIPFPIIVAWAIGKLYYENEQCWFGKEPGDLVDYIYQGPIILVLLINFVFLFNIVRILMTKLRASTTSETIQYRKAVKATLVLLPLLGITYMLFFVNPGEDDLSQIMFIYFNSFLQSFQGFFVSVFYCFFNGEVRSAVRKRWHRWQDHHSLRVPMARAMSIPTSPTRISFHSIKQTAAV
T2 sequence (P24387 whole entry): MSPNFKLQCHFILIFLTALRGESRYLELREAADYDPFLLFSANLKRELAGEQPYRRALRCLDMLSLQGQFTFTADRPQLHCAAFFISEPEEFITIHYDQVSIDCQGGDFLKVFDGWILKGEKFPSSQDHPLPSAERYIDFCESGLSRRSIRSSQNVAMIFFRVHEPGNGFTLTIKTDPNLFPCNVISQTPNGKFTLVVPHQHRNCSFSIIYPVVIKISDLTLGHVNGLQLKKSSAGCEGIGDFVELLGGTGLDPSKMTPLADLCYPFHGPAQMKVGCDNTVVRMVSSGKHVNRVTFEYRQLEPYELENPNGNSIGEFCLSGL
The data set is described as follows: activators of CRF receptor 2 with binding protein – uHTS hits, confirmation (AID 602473). Type of data set: functional. The settings on record: read-out: EC50_Mean.

For data set [4], the target named is T3, Rac GTPase-activating protein 1 (Homo sapiens, UniProt Q9H0H5).
T3 sequence (Q9H0H5 whole entry): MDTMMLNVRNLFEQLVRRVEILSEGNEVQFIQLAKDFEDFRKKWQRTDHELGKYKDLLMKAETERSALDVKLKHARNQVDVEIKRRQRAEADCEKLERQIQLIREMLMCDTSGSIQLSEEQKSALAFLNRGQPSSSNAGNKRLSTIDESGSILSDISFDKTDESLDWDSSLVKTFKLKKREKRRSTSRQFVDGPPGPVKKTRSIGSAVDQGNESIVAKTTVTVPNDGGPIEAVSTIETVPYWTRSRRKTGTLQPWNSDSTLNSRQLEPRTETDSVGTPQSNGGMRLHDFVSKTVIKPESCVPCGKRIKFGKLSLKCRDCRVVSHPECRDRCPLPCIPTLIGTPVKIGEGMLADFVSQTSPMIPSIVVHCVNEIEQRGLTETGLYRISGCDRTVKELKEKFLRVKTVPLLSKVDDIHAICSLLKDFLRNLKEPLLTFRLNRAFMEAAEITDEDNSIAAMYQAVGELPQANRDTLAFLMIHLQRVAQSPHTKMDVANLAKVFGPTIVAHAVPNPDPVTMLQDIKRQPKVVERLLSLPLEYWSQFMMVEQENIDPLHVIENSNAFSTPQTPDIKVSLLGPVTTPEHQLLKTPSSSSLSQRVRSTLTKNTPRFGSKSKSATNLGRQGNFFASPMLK
Put plainly: MgcRacGAP GTPase-activating activity inhibitors, confirmation, biochemical, ADP Hunter fluorescence, primary and confirmatory (AID 624330). Type of data set: functional.

In data set [5] the test system is Streptococcus sp. 'group A'. Put plainly: growth inhibition of control SK(-) GAS strain, dose response, counter-screen for streptokinase expression inhibitor project, luminescence, kanamycin, BacTiterGlo, confirmation (AID 1900). Type of data set: functional, organism-based.
Another data set concerns Streptococcus. Put plainly: Group A Streptococcus viability loss, dose response, counter-screen for streptokinase expression inhibitor project, luminescence, BacTiterGlo (AID 1915).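 Further: potency for reduction of bacterial viability or growth.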 The format is functional, organism-based.
The next data set deals with H4. The data set is described as follows: Luminescence Cell-Based Dose Response HTS to Identify Activators of 5'UTR Stem-Loop Driven Prion Protein mRNA Translation in H4 Neuroglioblastoma Cells. [Related pubchem assays: 1829 (Project Summary), 1814 (Primary HTS)]. The format is functional. Particulars: Homo sapiens.
Data set [6] in a line: Luminescence Cell-Based Dose Response HTS to Identify Activators of Luciferase Translation or Activity in H4 […] Cells. [Related pubchem assays: 1829 (Project Summary), 1814 (Primary HTS)]. Type of data set: functional.

Sequence of Cytochrome P450 2C19 (P33261 whole entry): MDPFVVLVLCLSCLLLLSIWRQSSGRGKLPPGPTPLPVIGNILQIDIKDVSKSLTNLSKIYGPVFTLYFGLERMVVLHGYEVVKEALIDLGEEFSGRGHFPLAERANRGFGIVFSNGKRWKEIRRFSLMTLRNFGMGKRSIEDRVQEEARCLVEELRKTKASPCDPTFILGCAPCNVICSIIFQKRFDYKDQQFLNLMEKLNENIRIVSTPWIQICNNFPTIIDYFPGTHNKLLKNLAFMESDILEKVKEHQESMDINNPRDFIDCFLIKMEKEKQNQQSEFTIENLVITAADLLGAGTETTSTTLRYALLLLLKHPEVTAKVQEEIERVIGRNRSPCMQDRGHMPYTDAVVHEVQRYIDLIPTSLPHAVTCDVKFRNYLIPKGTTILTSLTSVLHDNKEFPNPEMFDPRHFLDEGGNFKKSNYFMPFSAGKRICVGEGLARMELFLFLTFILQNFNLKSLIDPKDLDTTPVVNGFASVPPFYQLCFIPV

Consider `CC1CCC2CCCCC2N1C(=O)c1cc([N+](=O)[O-])cc([N+](=O)[O-])c1` (centres undefined), for which the EC50 in data set [1] is > 60 µM (not active); in [2], 0.212 µM (active).
Taken in the same sequence, the figures for `CCN(Cc1ccncc1)C(=O)c1cc(COc2c(C)cccc2C)on1` were > 60 µM (not active) and 1.42 µM (active).
Regarding `O=C(Nc1ccccc1)N1CC[C@@]2(CCCN(C(=O)c3ccco3)C2)C1`, the AC50 at Cytochrome P450 1A2 was 10 µM (inconclusive).
The same measure, in the same setting: to `CCCCn1cnc2c(SC)ncnc21` belongs 3.16 µM (inconclusive).
With `C[C@H](CCC(=O)O)[C@H]1CC[C@]2(C)[C@@H]3C(=O)C[C@H]4C(C)(C)[C@@H](O)CC[C@]4(C)[C@H]3C(=O)C[C@@]12C`, the AC50 result on Cytochrome P450 2C19 is “inconclusive”.
Take `Cc1ccc(C(=O)Nc2c(C#N)c(C)c(C)n2Cc2ccccc2)cc1`: at Cytochrome P450 2C19 (read-out: AC50), the AC50 is 0.447 µM (inconclusive).
Regarding `CN(C)C(=O)c1ccc(-c2cc(Nc3ccccc3)ncn2)cc1`, the AC50 at Cytochrome P450 1A2 was 12.6 µM (inconclusive).
`CCOc1ccccc1N(C)C(=O)c1cc2c(=O)n(CC)c3ccccc3c2s1`: the EC50 in data set [1] was > 60 µM (not active); in [2], 1.43 µM (active).
For the compound `CCC(=O)Nc1cccc(-n2nnnc2SCC(=O)N2CCCCC2)c1`, the EC50 in data set [3] is 11.7 µM (active).
For the compound `COc1ccc(CN2CCC(N3CC(C)OC(C)C3)CC2)c(OC)c1OC` (centres undefined), the IC50 in [4] was 66 µM (active).
For `Cc1ccccc1C1c2[nH]c3ccccc3c2C[C@H]2C(=O)N(C3CCN(Cc4ccccc4)CC3)CC(=O)N12` (some centres undefined), the figures for the EC50 in data set [1] and in data set [2] were 13.3 µM (active) and 1.98 µM (active), respectively.
`Cc1ccc(S(=O)(=O)C(C#N)c2nc3ccccc3nc2N2CCCC2)cc1` (centres undefined): in data set [3], the EC50 was > 53 µM (inactive).
`O=C1[C@H]2C(c3ccccc3)=NN(c3ccccc3)[C@H]2C(=O)N1c1ccccc1`: the EC50 in data set [5] is 0.614 µM (active); in the data set on Streptococcus it was 3.62 µM (active).
Regarding `COc1ccc(CN2CCN(Cc3ccc(Br)cc3)CC2)c(OC)c1OC`, in data set [4], the IC50 was 70.2 µM (active).
With `C1CCC(CNc2c3c(nc4nnnn24)CCCC3)CC1`, the EC50 in data set [1] was > 60 µM (not active); in [2] it was 1.87 µM (active).
Turning to `CCC(=O)Nc1ccc2nc(C3CC3)n(Cc3ccc(C(C)(C)C)cc3)c(=O)c2c1`, the EC50 in [1] was > 60 µM (not active); in data set [2], 0.325 µM (active).
As for `CCn1cc(CN2CCCC(C(=O)c3cccc(OC)c3)C2)c(C)n1` (centres undefined), the figures for the EC50 in [1] and in data set [2] were > 60 µM (inconclusive) and 0.426 µM (active), respectively.
`CCC(CC)C(=O)NC1CCSC1=O` (centres undefined): the figures for the AC50 entry at Cytochrome P450 2C19 and at Cytochrome P450 1A2 were “inconclusive” and 39.8 µM (inconclusive), respectively.
Turning to `Cc1ccc(Cc2cnc(N3C(=N)SC(c4ccccc4)C3=O)s2)cc1` (centres undefined), the EC50 in data set [5] was 0.181 µM (active); in the data set with Streptococcus, 5.16 µM (active).
For `COC(=O)N1N=C(c2ccc(Br)cc2)CC1(O)C(F)(F)F` (centres undefined), the EC50 is 0.745 µM (active) with H4 and 2.85 µM (active) in [6].
Regarding `OCCCCNc1cccc2ccccc12`, the IC50 in [4] was 22.8 µM (active).
On the same count and under the same terms, to `CCC(=O)Nc1ccc(Nc2ccccc2)cc1` belongs 53.6 µM (active).
Regarding `O=C(NC1CCN(Cc2ccccc2)CC1)C1CCN(S(=O)(=O)c2ccccc2)CC1`, the EC50 in data set [1] was > 60 µM (not active); in [2], 0.424 µM (active).
In the case of `Nc1nc(NCCOCCO)nc(N2CCCCCC2)c1[N+](=O)[O-]`, the results for the EC50 (in data set [5]; with Streptococcus) were 5.73 µM (active) and 8.6 µM (active), respectively.
Turning to `O=C(NCCCN1CCOCC1)c1ccc(Sc2ccc(F)cc2)c([N+](=O)[O-])c1`, the results for the EC50 in data set [1] and in data set [2] were > 60 µM (inconclusive) and 1.01 µM (active), respectively.
Regarding `CCC1CCCCN1CC(=O)c1c(C)[nH]c2ccccc12` (centres undefined), the EC50 in [3] is 22.6 µM (active).
Regarding `Cc1[nH]c2ccccc2c1SCc1nnc(SCc2ccc(Cl)cc2)n1C`, the values for the EC50 in [1] and in [2] were 12.3 µM (active) and 3.54 µM (active), respectively.
The matching figures for `COc1cc(CN2CCCC(CO)(Cc3cccc(Cl)c3)C2)cc2c1OCO2` (centres undefined): > 60 µM (not active) and 0.419 µM (active).
With `C[C@@H]1CCc2cc(F)cc3c(=O)c(C(=O)O)cn1c23`, the AC50 at Cytochrome P450 1A2 is 12.6 µM (inconclusive).
As to `Cc1c(NC(=O)c2ccc(-c3ccc([N+](=O)[O-])cc3Cl)o2)c(=O)n(-c2ccccc2)n1C`, the EC50 was > 60 µM (inconclusive) in data set [1] and 0.839 µM (active) in [2].
With `Cc1cc(C)c2c(N)c(C(=O)c3ccccc3)sc2n1`, the EC50 is > 60 µM (not active) in data set [1] and 0.225 µM (active) in data set [2].
For `O=C(Nc1cccc(F)c1)N1CC=C(c2ccc(Cl)cc2)CC1`, the figures for the EC50 in data set [1] and in [2] were > 60 µM (not active) and 1.48 µM (active), respectively.
For `CC1=NN(c2ccccc2)C(=O)C1C(=O)c1ccc(Cl)cc1` (centres undefined), the AC50 at Cytochrome P450 2C19 (read-out: AC50) is 39.8 µM (inconclusive).
With `O=C(O)C1C2C=CC3(CN(Cc4ccccn4)C(=O)C13)O2` (centres undefined), the concentration at half-maximal activity (AC50) result at Cytochrome P450 2C19 is listed as “inconclusive”.
Take `CN1CCN(c2ncc3nc(-c4cccs4)c(=O)n(CCc4ccccc4)c3n2)CC1`: the AC50 on Cytochrome P450 1A2 is 2.51 µM (inconclusive).
As to `COC(=O)c1c(-c2ccc3ccccc3c2)csc1NC(=O)Cc1ccc(OC)c(OC)c1`, the AC50 on Cytochrome P450 1A2 was 11.2 µM (inconclusive).
Consider `C[C@@]12CC[C@H](O)C[C@@H]1CC[C@@H]1[C@@H]2CC[C@@]2(C)[C@@H](C3=CC(=O)OC3)[C@H](O)C[C@]12O`, for which, on Cytochrome P450 2C19, the AC50 result was “inconclusive”.
Turning to `CCOC(=O)Nc1ccc(OC(=O)Oc2ccc(NC(=O)OCC)cc2)cc1`, the IC50 in data set [4] was 31.8 µM (active).
Still for that read-out and setting: in the case of `COc1cc(/C=N/Nc2nc3ccccc3s2)ccc1O` it was 69.6 µM (active).
On to `CC(=O)Nc1sc2c(c1C(N)=O)CCCC2`, for which the AC50 at Cytochrome P450 2C19 (read-out: AC50) is 35.5 µM (inconclusive).
For `COc1ccc(CNc2ccc(N3CCN(C(C)=O)CC3)cc2)cc1OC`, the IC50 in [4] was 12 µM (active).
For the compound `COc1cccc(/C=N/N2CCN(c3ccncc3S(=O)(=O)N3CCCCC3)CC2)c1`, the EC50 in data set [1] is > 60 µM (not active); in data set [2], 1.71 µM (active).
The matching figures for `CCOc1ccccc1/C=N\Nc1cnn(Cc2ccccc2)c(=O)c1Cl`: > 60 µM (inconclusive) and 3.38 µM (active).
